Tested on: KRAS PDC tumor spheroids (HUVEC+MSC), viability
Experiment: Anticancer human tumor 254851-301-R-J1-PDC patient-derived colon carcinoma cell line growth inhibition [KRAS2]
Conditions: for IC50: curve of first compound; for viability, T/C: stronger effect = lower value
Procedure, shortened: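 KRAS-mutant tumor cells were grown as spheroids with HUVEC endothelial cells and human MSCs as stroma. Targeted agents were tested alone and with KRAS pathway inhibitors. Doses started at or near clinical Cmax, or 10 microM, descending half-log.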

[1] = second compound 0.1 µM, first compound 0.0316 µM
[2] = second compound 0.1 µM, first compound 0.1 µM
[3] = second compound 0.1 µM, first compound 0.316 µM
[4] = second compound 0.1 µM, first compound 1 µM
[5] = second compound 0.1 µM, first compound 3.16 µM
[6] = second compound 0.1 µM, first compound 10 µM
[7] = second compound 0.316 µM, first compound 0.0316 µM
[8] = second compound 0.316 µM, first compound 0.1 µM
[9] = second compound 0.316 µM, first compound 0.316 µM
[10] = second compound 0.316 µM, first compound 1 µM
[11] = second compound 0.316 µM, first compound 3.16 µM
[12] = second compound 0.316 µM, first compound 10 µM
[13] = second compound 1 µM, first compound 0.0316 µM
[14] = second compound 1 µM, first compound 0.1 µM
[15] = second compound 1 µM, first compound 0.316 µM
[16] = second compound 1 µM, first compound 1 µM
[17] = second compound 1 µM, first compound 3.16 µM
[18] = second compound 1 µM, first compound 10 µM
[19] = second compound 3.16 µM, first compound 0.0316 µM
[20] = second compound 3.16 µM, first compound 0.1 µM
[21] = second compound 3.16 µM, first compound 0.316 µM
[22] = second compound 3.16 µM, first compound 1 µM
[23] = second compound 3.16 µM, first compound 3.16 µM
[24] = second compound 3.16 µM, first compound 10 µM
[25] = second compound 10 µM, first compound 0.0316 µM
[26] = second compound 10 µM, first compound 0.1 µM
[27] = second compound 10 µM, first compound 0.316 µM
[28] = second compound 10 µM, first compound 1 µM
[29] = second compound 10 µM, first compound 3.16 µM
[30] = second compound 10 µM, first compound 10 µM
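Further: spheroids exposed to compounds for seven days before readout.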
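Wherever viability, T/C is given: 100% = DMSO vehicle control luminescence of the spheroids.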

Structure (SMILES) | IC50 (second compound 0.1 µM) | IC50 (second compound 0.316 µM) | IC50 (second compound 1 µM) | IC50 (second compound 3.16 µM) | IC50 (second compound 10 µM) | viability, T/C [1] | viability, T/C [2] | viability, T/C [3] | viability, T/C [4] | viability, T/C [5] | viability, T/C [6] | viability, T/C [7] | viability, T/C [8] | viability, T/C [9] | viability, T/C [10] | viability, T/C [11] | viability, T/C [12] | viability, T/C [13] | viability, T/C [14] | viability, T/C [15] | also measured
CCNC(=O)CC1N=C(c2ccc(Cl)cc2)c2cc(OC)ccc2-n2c(C)nnc21 (stereo not given) + COc1cc2nc(C)nc(NC(C)c3cc(N)cc(C(F)(F)F)c3)c2cc1OC1CCOC1 | 3.47 µM | 2.53 µM | 1.94 µM | 0.668 µM | 0.712 µM | 115% | 123% | 97.6% | 84.8% | 45% | 43% | 113% | 122% | 109% | 65.8% | 45.5% | 45.5% | 103% | 111% | 98.6% | viability, T/C [16]: 65.9%; viability, T/C [17]: 39.2%; viability, T/C [18]: 17.6%; viability, T/C [19]: 73%; viability, T/C [20]: 107%; viability, T/C [21]: 76%; viability, T/C [22]: 36.2%; viability, T/C [23]: 22.4%; viability, T/C [24]: 26.4%; viability, T/C [25]: 79.9%; viability, T/C [26]: 81.6%; viability, T/C [27]: 74.8%; viability, T/C [28]: 39.2%; viability, T/C [29]: 22.9%; viability, T/C [30]: 15.7%
CC1OCC2(CCN(c3cnc(Sc4ccnc(N)c4Cl)c(N)n3)CC2)C1N (stereo not given) + C=CC(=O)N1CCN(c2nc(=O)n(-c3c(C)ccnc3C(C)C)c3nc(-c4c(O)cccc4F)c(F)cc23)C(C)C1 | > 10 µM | > 10 µM | > 10 µM | > 10 µM | > 10 µM | 95% | 91% | 81.6% | 60.2% | 67.2% | 61.9% | 78% | 99.2% | 75.4% | 71.4% | 60.5% | 68.7% | 94.6% | 84.7% | 76.3% | viability, T/C [16]: 74.1%; viability, T/C [17]: 67.8%; viability, T/C [18]: 67.5%; viability, T/C [19]: 92.6%; viability, T/C [20]: 71.1%; viability, T/C [21]: 81.5%; viability, T/C [22]: 63.9%; viability, T/C [23]: 72.2%; viability, T/C [24]: 65.6%; viability, T/C [25]: 80.7%; viability, T/C [26]: 70.8%; viability, T/C [27]: 58.9%; viability, T/C [28]: 55.6%; viability, T/C [29]: 56%; viability, T/C [30]: 66.3%
COc1cc2nccc(Oc3ccc(NC(=O)C4(C(=O)Nc5ccc(F)cc5)CC4)cc3)c2cc1OC + C=CC(=O)N1CCN(c2nc(=O)n(-c3c(C)ccnc3C(C)C)c3nc(-c4c(O)cccc4F)c(F)cc23)C(C)C1 | > 10 µM | > 10 µM | > 10 µM | > 10 µM | > 10 µM | 108% | 102% | 99.3% | 110% | 104% | 65.9% | 104% | 107% | 113% | 110% | 99.4% | 57.4% | 109% | 115% | 113% | viability, T/C [16]: 103%; viability, T/C [17]: 104%; viability, T/C [18]: 74.8%; viability, T/C [19]: 114%; viability, T/C [20]: 112%; viability, T/C [21]: 111%; viability, T/C [22]: 117%; viability, T/C [23]: 108%; viability, T/C [24]: 72.1%; viability, T/C [25]: 131%; viability, T/C [26]: 115%; viability, T/C [27]: 111%; viability, T/C [28]: 112%; viability, T/C [29]: 90.8%; viability, T/C [30]: 62.6%

From PubChem BioAssay AID1963868 (Molecular Pharmacology Branch, DTP, NCI, 2024)
